{
  "source": "paper PMC12037037",
  "about": "(Proceedings of the National Academy of Sciences of the …, 2025)",
  "key": {"[1]": {"test_system": "panel of 55 central nervous system targets", "test": "Competitive radioligand binding selectivity panel (Eurofins Discovery)", "description": "Figure S3. Selectivity profiles for (+)-JRT and (–)-JRT across 55 central nervous system targets. The effects of (+)- JRT (10 μM) and (–)-JRT (10 μM) on a wide range of targets were assessed by Eurofins Discovery. Data represent % inhibition of the binding of a radioactively labeled ligand specific for each target. Assays were conducted in duplicate and the results were averaged.\nData Analysis and Statistics. Treatments were randomized, and data were analyzed by experimenters blinded to treatment conditions. Statistical analyses were performed using GraphPad Prism (version 10.0.3) unless noted otherwise.\nAll comparisons were planned prior to performing each experiment. No data were excluded. Data are represented as mean ± SEM, unless noted otherwise, with asterisks indicating *p < 0.05, **p < 0.01, ***p < 0.001, and ****p < 0.0001. Details of all statistical tests are shown in SI Appendix, Table S1. […]\nBoth (+)-JRT and (–)-\nJRT were synthesized in-house and judged to be analytically pure based on NMR and LC-MS data. For cell culture experiments, VEH = 0.1% (agonist studies) or 0.2% (antagonist studies) molecular biology grade dimethyl sulfoxide (Sigma-Aldrich). For in vivo experiments, compounds were administered i.p. at 5 mL/kg using 0.9% saline as the vehicle, unless noted otherwise. VEH = USP grade saline (0.9%). Stock solutions for behavioral assays were prepared fresh before use.\nFumarate salts of (+)-JRT and (–)-JRT were used for all biological studies unless noted otherwise.\nAnimals. All experimental procedures involving animals were approved by the Institutional Animal Care and Use Committee (IACUC) at the University of California, Davis, the Salk Institute, Weill Cornell Medicine, McLean Hospital (Harvard Medical School), or the Contract Research Organization (CRO) where the study was performed. All procedures involving animals adhered to principles described in the National Institutes of Health Guide for the Care and Use of Laboratory Animals.\nAnimals were either obtained from Jackson Laboratory (Sacramento, C.A.) or bred in-house unless noted otherwise. Power analyses were conducted to ensure appropriate sample sizes for all experiments involving animals. Animals were housed 2–5 animals of the same sex per cage on a 12h light/dark cycle and were given ad libitum access to food and water unless noted otherwise. The University of California, Davis, the Salk Institute, and Weill Cornell Medicine are accredited by the Association for Assessment and Accreditation of Laboratory Animal Care International (AAALAC). Whenever possible, both sexes were utilized. However, a single sex was utilized in some cases when 1) a contract research organization had only […]\nRadioligand Binding Selectivity Panel. Competitive radioligand binding studies for (+)-JRT (10 μM) and (–)-JRT (10 μM) were performed across a panel of receptors at Eurofins Discovery. Experiments were performed using the free bases of […]\nradioligand and source of receptor (5,6,7,8,9,10,11,12).\nRadioligand Binding Assays (5-HT2AR and 5-HT2CR). The 5-HT2AR and 5-HT2CR competitive radioligand binding assays were performed at Epics Therapeutics S.A. (Belgium, FAST-0505B) using conventional methods. Experiments were performed using the free bases of (+)-JRT and (–)-JRT. […] Nonspecific binding was determined by co-incubation with 200-fold excess of cold competitor DOI. […]"}, "[2]": {"test_system": "C57BL/6J mice", "test": "Amphetamine-induced locomotion", "format": "in vivo", "conditions": "VEH + AMPH 3 mg/kg", "description": "Figure S11. […] (A) Pretreatment with (+)-JRT (1 mg/kg,\n(§1) IP) can block AMPH-induced hyperlocomotion in female, but not male, mice. (B) Pretreatment with (+)-JRT (1 mg/kg, IP) […]\n(§2) AMPH = (+)-amphetamine; PCP = phencyclidine; VEH = vehicle; ns = not significant. *p < 0.05, **p < 0.01, ***p < 0.001, ****p < 0.0001, as compared to the comparator(s) indicated by a horizontal bar. See Methods and SI Appendix, Table S1 for full details on statistics.\n(1 picture or pasted object on this page, not shown here)\nAmphetamine-Induced Locomotion. The amphetamine-induced hyperlocomotion assay was performed using male and female C57BL/6J mice that were approximately 8 weeks old at the time of the experiments. Animals were first placed in the test arena (40 cm x 40 cm) for 15 min to obtain a basal reading of locomotion and habituate them to the testing arena.\nNext, animals were administered (+)-JRT (1 mg/kg) or VEH (2.5 mL/kg, i.p) and placed back in the test arena. After 15 min, the animals were administered (+)-amphetamine (3 mg/kg) or VEH (2.5 mL/kg) and placed back in the test arena for 60 minutes. Locomotion during the entire experiment was quantified using ANYmaze Video Tracking System, version 7.07 (Stoelting Co.). The test arena was cleaned thoroughly with 70% ethanol between trials. […]\n(§3) Reads were aligned to the GRCm39 genome assembly using STAR, processed with Picard, and counted with the Subread software. Transcript inclusion criteria consisted of a minimum raw expression level of 25 transcripts in a minimum of 4 samples. Surrogate variable analysis was conducted with the sva package 2023 release v3.5.0 in R and normalization and differential expression analysis was performed with DESeq2 v4.3 with a baseMean threshold of 10. Heatmaps were created with the pheatmap v1.0.12 with sample-wise z-scores plotted and both row and column grouping allowed using pearson's distances and ward.D for clustering. Gene-wise selection criteria for heatmaps were a baseMean expression threshold of 50 to focus on robustly expressed genes, p value < 0.05, and presence in the top 250 genes sorted by absolute value of log2FC. Additionally, z score was capped at 2 for visualization purposes. Schizophrenia gene sets were extracted from a recent TWAS study (30).\n(§4) For Figure S8G, the TWAS set was filtered for FDR < 0.01. Permutation testing was conducted to quantify the overlap of top genes from schizophrenia TWAS with the perm_test function from the bulkWarehouse package 2023 release v1.2.7.\n(§5) Briefly, the intersection of top differentially expressed genes and top TWAS genes is compared to an empirical distribution created by calculating the intersection with our top DEGs when randomly sampling candidate genes from our dataset equal to the size of the TWAS sample. […]"}, "[3]": {"test_system": "cultured rat embryonic cortical neurons", "test": "Neuritogenesis assay (Sholl analysis, DIV6)", "format": "cell-based", "conditions": "1 µM, DIV6, mean ± SEM", "protocol": "Figure S8. […] (A) Sholl analysis of embryonic day 18 (E18) rat cortical\n(D) Area under the curves of the Sholl plots\nN values are shown within the bars. VEH =\nNeuritogenesis Assays. Neuritogenesis Assays were performed as previously described (17) with slight modifications.\nBriefly, 96 well plates were coated with poly-D-lysine and approximately 15,000 cells/well. Neurons were treated after 3 days in vitro (DIV3) for 1 h followed by a complete media change. Cells were incubated for an additional 3 days before fixing and staining for MAP2 on DIV6. Neurites were visualized using a chicken anti-MAP2 antibody (1:10,000; EnCor, CPCA-MAP2) and an anti-chicken IgG secondary antibody conjugated to Alexa Fluor 488 (Life Technologies, 1:500). Plates were imaged in DPBS on a Thermo Scientific CellInsight CX7 High-Content Screening Platform at 20x (N.A. = 0.45). Images were analyzed using the Simple Neurite Tracer and Sholl analysis plug-ins for ImageJ Fiji (version 1.51N). Sholl analysis circle radii = 2 µm increments. All images were taken and analyzed by an experimenter blinded to treatment conditions."}, "[4]": {"test_system": "male Long Evans rats", "test": "Probabilistic reward task (PRT) under chronic cold-water stress", "format": "in vivo", "conditions": "KET 10 mg/kg IP"}, "[5]": {"test_system": "male Sprague Dawley rats", "test": "Rat forced swim test (FST)", "format": "in vivo", "conditions": "10mg/kg IP, 24 h after administration", "description": "as §3, §4\nBriefly, the intersection of top differentially expressed genes and top TWAS genes is compared to an empirical distribution created by calculating the intersection with our top DEGs when randomly sampling candidate genes from our dataset equal to the size of the TWAS sample. Selection criteria from the TWAS include an expression level of 25 transcripts in a minimum of 4 samples in our dataset, FDR < 0.01 from the TWAS and top 250 sorted by absolute value of log2FC. Selection criteria from our gene set were an expression level of 25 transcripts in a minimum of 4 samples, p value < 0.1 and top 250 sorted by absolute value of log2FC.\nRat Forced Swim Test (FST). This study was performed by Psychogenics (Paramus, NJ). Male Sprague Dawley rats were purchased from Envigo (Indianapolis, IN), and were 8 weeks old at the time of the experiments. Upon receipt, they were assigned unique identification numbers (tail marked) and group housed in ventilated cages with 3 rats per cage. All animals […]\nremained housed in groups of three for the remainder of the study. All rats were acclimated to the colony room for up to one week prior to dosing. During the period of acclimation, rats were examined and handled daily, and weighed to assure adequate health and suitability. The room temperature was maintained between 20 °C and 23 °C with a relative humidity of 30%–70%. Lab Rodent Diet 5001 (W.F. Fisher, Cat # 11015) and water were provided ad libitum. Animals were randomly assigned across treatment groups. All testing was performed during the light phase of the light/dark cycle. Behavioral testing was conducted according to established protocols approved by the IACUC committee and PGI Standard Operation Procedures (SOP). Each forced swim chamber was constructed of clear acrylic (height = 40 cm; diameter = 20.3 cm). Only one rat was placed in the swim chamber at a time for each swim test. The water was changed and the chamber cleaned between each animal. The water depth was 16 cm in the first swim session (pre-test) and 30 cm in the second swim session (test). The water was maintained at 23 °C ± 1 °C for all swim sessions. At the end of each swim test rats were dried with paper towels and returned to the home cage. All animals were carefully monitored to ensure their safety in the swim test and any animal unable to maintain a posture with its nose above water was immediately removed from the water and not used further in the study. Animals were first subjected to a pre-test for 15 min. Immediately after the pre-test, they were administered compounds or VEH via i.p. injection (1 ml/kg). Racemic ketamine hydrochloride (10 mg/kg) was used as a positive control. A salt correction factor of 1.36 was used when preparing formulations of (+)-JRT to ensure that the dose corresponded to that of the free base. […]"}, "[6]": {"test_system": "male C57BL/6J mice", "test": "PCP-induced locomotion (Psychogenics)", "format": "in vivo", "conditions": "VEH + PCP 5 mg/kg IP; VEH + VEH 11101 ± 1709", "description": "as §1, §2\n(1 picture or pasted object on this page, not shown here) […]\nPCP-Induced Locomotion. The PCP-induced hyperlocomotion assay was performed by Psychogenics using male C57BL/6J mice that were approximately 8 weeks old at the time of the experiments. The experiment was performed during the animal’s light cycle phase. On the day of testing, animals were acclimated to the experimental room for at least 1 h prior to treatment. Animals were then administered with VEH or JRT (IP, 10 mL/kg) and placed in holding cages for 30 min, after which mice were placed in the open field chambers (27.3 x 27.3 x 30.3; Med Associates Inc., St Albans, VT). Baseline activity was recorded for 30 min. Next, mice received either PCP (5 mg/kg, IP, 10 ml/kg) or VEH and were returned to the open field chambers for a 60 min test session. Locomotion was assessed using consecutive infrared beam breaks. At the end of each session, the chambers were thoroughly cleaned. […]\nas §3, §4, §5"}},
  "data": [
    {"compound": "CCN(CC)C(=O)[C@H]1C=C2c3cccc4ccn(c34)C[C@@H]2N(C)C1", "note": "[(–)-JRT]", "values": [
      {"measurement": "Selectivity across panel of 55 central nervous system targets", "setting": "[1]; 10 μM, free bases", "result": "highly selective for a subset of serotonin receptors"},
      {"measurement": "Affinity for dopamine, histamine, or adrenergic receptors", "setting": "[1]; radioligand binding, unlike LSD", "result": "neither of these compounds exhibited affinity"}
    ]},
    {"compound": "C[C@H](N)Cc1ccccc1", "note": "[AMPH, (+)-amphetamine, reference compound]", "values": [
      {"measurement": "Locomotion (Figure 11A Females)", "setting": "[2]; female mice, VEH + VEH 101.9 ± 15.04", "result": "418.5 ± 32.97"},
      {"measurement": "Locomotion (Figure 11A Males)", "setting": "[2]; male mice, VEH + VEH 59.80 ± 4.206", "result": "330.5 ± 74.31"}
    ]},
    {"compound": "CN1CCN(C2=Nc3cc(Cl)ccc3Nc3ccccc32)CC1", "note": "[CLZ, clozapine, reference compound]", "values": [
      {"measurement": "Area under the curves of the Sholl plots (Figure S8D)", "setting": "[3]; VEH 1.000 ± 0.05010", "result": "1.045 ± 0.04563"},
      {"measurement": "Total branches (Figure S8C)", "setting": "[3]; VEH 2.325 ± 0.2641", "result": "3.280 ± 0.2858"},
      {"measurement": "Number of primary dendrites (Figure S8B)", "setting": "[3]; VEH 6.275 ± 0.2292", "result": "7.620 ± 0.2586"}
    ]},
    {"compound": "CNC1(c2ccccc2Cl)CCCCC1=O", "note": "(centres unmarked) [Ketamine, ketamine, reference compound]", "values": [
      {"measurement": "Response bias (log b) (Figure 6G)", "setting": "[4]; Day 2, Day 1 0.120 ± 0.042", "result": "0.330 ± 0.035"},
      {"measurement": "Response bias (log b) (Figure 6G)", "setting": "[4]; Day 3, Day 1 0.120 ± 0.042", "result": "0.304 ± 0.091"},
      {"measurement": "Response bias (log b) (Figure 6G)", "setting": "[4]; Day 11, Day 1 0.120 ± 0.042", "result": "0.266 ± 0.086"},
      {"measurement": "Response bias (log b) (Figure 6G)", "setting": "[4]; Day 1 (stressed, before drug) 0.120 ± 0.042", "result": "0.457 ± 0.070"},
      {"measurement": "Swimming (Figure 6B)", "setting": "[5]; VEH 22.10 ± 1.929", "result": "34.10 ± 1.187"},
      {"measurement": "Immobility (Figure 6B)", "setting": "[5]; VEH 37.20 ± 1.867, of 60 scored behaviors", "result": "25.00 ± 1.265"}
    ]},
    {"compound": "c1ccc(C2(N3CCCCC3)CCCCC2)cc1", "note": "[PCP, phencyclidine, reference compound]", "values": [
      {"measurement": "Locomotion, infrared beam breaks (Figure 11B)", "setting": "[6]", "result": "26552 ± 1179"}
    ]}
  ]
}
